Legend:
Format in all cases: cell-based
[1] = biological target: T1, TetR-ERLBDT2 regulatory fusion protein (UniProt P03372+P04483, G400V/L544A/M543A); assay: hFcγRI expression regulated by TetR-ERLBDT2 in CHO K1-FcR/pTE313 clones, FITC-hFc staining and flow cytometry; details: clone D124 (pool C12); OHT present without Dox
T1 construct: 11 amino acid linker […]; expressed in transfected cells; host or cells: CHO K1-FcR cells (CHO K1 with pTE158) stably transfected with pTE313
Experimental: The cells were placed in the culture medium (10% fetal bovine serum, 90% Ham's F-12, 2 mM L-glutamine; all reagents were from Life Technologies, Rockville, Md.) containing 500 G418 (Life Technologies) for 12 days. […] Briefly, cells grown on 10 cm culture plates were washed once with Dulbecco's phosphate-buffered saline (PBS) without calcium chloride and magnesium chloride (Life Technologies). Two milliliters of 0.25% trypsin (Life Technologies) was added to each plate and incubated at 37° C. for 4-5 min. The plates were swirled until the cells detached from the plate. Four milliliters of culture medium was immediately added to each plate of the detached cells. […] Washed cells capable of binding FITC-hFc were measured by flow cytometry on a MOFLO™ cell sorter (Cytomation; Fort Collins, Colo.). […] The total pool of fluorescent cells from the G418-resistant population was collected by flow cytometry, expanded then analyzed by flow cytometry for expression of hFcγRI. […]
Cells were incubated for three days then stained with FITC-hFc to detect the presence of hFcγRI. The top 60% of hFcγRI-positive cells from the culture induced with 1 μg/ml Dox were isolated to yield pool B 11, and cells with the lowest 30% fluorescence were isolated from cells grown in medium without Dox to yield pool B 12. […]

[2] = biological target: T2, Arc2-ERLBDT2 fusion protein (Homo sapiens, UniProt P03372, G400V/L544A/M543A); assay: Time course of 13SC1132 induction in clone C110 after removal of OHT, mean fluorescence of cell surface-displayed protein; details: clone C110 grown in 200 nM OHT, then washed; measured 3, 6 and 9 days after removal
T2 construct: expressed in transfected cells; host or cells: CHO K1/pTE534 cells (A2) or RGC12 cells, a CHO K1 derivative (A3), stably transfected with pTE529
T2 sequence (P03372 with tags, fused parts or gaps G400V/M543A/L544A): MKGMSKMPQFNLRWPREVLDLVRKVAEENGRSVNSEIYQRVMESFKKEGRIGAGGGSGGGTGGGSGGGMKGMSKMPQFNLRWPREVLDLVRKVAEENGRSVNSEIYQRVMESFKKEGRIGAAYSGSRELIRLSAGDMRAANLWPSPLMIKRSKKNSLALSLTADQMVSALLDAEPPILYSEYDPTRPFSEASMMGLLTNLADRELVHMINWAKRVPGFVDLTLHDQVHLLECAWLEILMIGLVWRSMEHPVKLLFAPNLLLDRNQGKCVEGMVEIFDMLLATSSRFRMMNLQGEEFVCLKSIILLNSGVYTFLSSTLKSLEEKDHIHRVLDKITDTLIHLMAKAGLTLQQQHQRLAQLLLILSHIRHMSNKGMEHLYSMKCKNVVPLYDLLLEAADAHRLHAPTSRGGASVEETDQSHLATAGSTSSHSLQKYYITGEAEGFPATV
Experimental: RGC12 cells (2×10^6) were transfected with 5 μg pTE529 encoding the Arc-ERLBDT2 protein driven by a ubiquitin promoter (FIG. 9) using Lipofectamine™ as described above. The cells were placed in the culture medium (10% fetal bovine serum, 90% Ham's F-12, 2 mM L-glutamine; all reagents were from lnvitrogen Life Technologies, Carlsbad, Calif.) containing 10 μg/ml puromycin (CalBiochem) for 14 days. Cells resistant to puromycin, expressing the Arc2-ERLBDT2 fusion protein, were then transfected with pTE689 encoding protein of interest […] (FIG. 8) as described above except the culture medium contained 200 nM OHT. […] Cells that secreted the highest levels of 13SC1132 as measured by 13SC1132 complexed with FcγRI on the cell surface (top 5%) were isolated by flow cytometry on a MOFLO™ cell sorter. Cells were grown in the presence of OHT for 7 days, and treated for screening as described above, but the cells with the lowest 5% cell surface fluorescence were isolated in order to enrich for clones with regulated expression of 13SC1132. Cells were then grown in the absence of OHT, treated for flow cytometry, and single cells with the highest 0.1% fluorescence in this population were isolated, expanded, and screened for 13SC1132 expression in the absence of OHT and tight regulation in the presence of OHT. […]

[3] = biological target: T2, Arc2-ERLBDT2 fusion protein; assay: hFcγRI expression regulated by Arc2-ERLBDT2 in CHO K1/pTE534 cells transfected with pTE529, FITC-hFc staining and flow cytometry
Experimental: CHO K1 cells (2×10^6) were transfected with pTE534 using Lipofectamine™ as described above. The cells were placed in the culture medium (10% fetal bovine serum, 90% Ham's F-12, 2 mM L-glutamine; all reagents were from Invitrogen Life Technologies, Carlsbad, Calif.) containing 400 μg/ml G418 (Invitrogen Life Technologies) for 12 days. Cells resistant to G418 were trypsinized, pooled, and stained with 2 μg/ml of FITC-conjugated human IgG, Fc fragment (FITC-hFc) as described above. […] Cells that expressed hFcγRI bound FITC-hFc and were isolated based on their fluorescence by flow cytometry on a MOFLO™ cell sorter. Cells with the highest 3% fluorescence in this population were isolated, pooled, and expanded. This hFcγRI-positive pool was enriched by repeating the cell surface staining with FITC-hFc and sorting the top 30% most fluorescent cells in the population to yield pool B. Cells in pool B that were among the top 20% expressing hFcγRI were isolated to yield pool C. Pool C2 (CHOK1/pTE534) was used to generate inducible cell lines regulated by Arc-ERLBDT2.
CHO K1/pTE534 cells (2×10^6/dish) were transfected with either pRG985, an empty vector, or pTE529 using Lipofectamine™. […] The cells were stained with FITC-hFc as described above and analyzed by flow cytometry. […] This pool was expanded in the presence of OHT for 10 days, stained for hFcγRI expression and analyzed by flow cytometry. […]

T1 sequence (P04483+P03372 fused P03372:G400V/P03372:M543A/P03372:L544A): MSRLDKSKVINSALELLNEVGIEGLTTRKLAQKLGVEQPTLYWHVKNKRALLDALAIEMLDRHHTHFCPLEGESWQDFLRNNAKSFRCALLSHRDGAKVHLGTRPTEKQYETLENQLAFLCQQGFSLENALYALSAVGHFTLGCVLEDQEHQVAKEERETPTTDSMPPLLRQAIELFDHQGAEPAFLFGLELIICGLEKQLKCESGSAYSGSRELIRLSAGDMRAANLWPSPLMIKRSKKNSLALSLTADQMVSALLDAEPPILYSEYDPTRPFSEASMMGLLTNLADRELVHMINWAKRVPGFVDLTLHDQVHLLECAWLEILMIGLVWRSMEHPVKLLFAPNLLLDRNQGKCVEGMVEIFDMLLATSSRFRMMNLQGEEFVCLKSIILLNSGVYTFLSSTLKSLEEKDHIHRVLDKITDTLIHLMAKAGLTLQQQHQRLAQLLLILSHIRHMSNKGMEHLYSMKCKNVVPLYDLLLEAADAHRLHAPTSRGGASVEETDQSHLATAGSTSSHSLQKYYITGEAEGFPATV

4-hydroxytamoxifen [OHT] was tested. Which “level of hFcγRI expression” value [1] did it give?
Its value is “no detectable level of hFcγRI”.

What about the “time after OHT removal until full induction of 13SC1132 expression” value [2] of the same substance?
Its value is 6 days.

What about the “level of hFcγRI expression” value ([3]; clone C17, OHT present in the medium) of the same substance?
The value was “No detectable level of hFcγRI”.

What about the “cells in pool that did not express hFcγRI” value ([3]; sorted pool expanded in the presence of OHT for 10 days) of the same substance?
The value was “Over 70%”.
